target: GST tagged truncated human mutant G2019S LRRK2 (Homo sapiens (Human), UniProt Q5S007, G2019S); experiment: LRRK2 Km ATP LanthaScreen Assay; type: biochemical; details: G2019S LRRK2, 134 μM ATP (Km ATP), mean values
How it was run: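 Enzyme (GST-tagged, truncated) was preincubated with compound for 15 min at RT in 50 mM Tris pH 8.5, 10 mM MgCl2, 0.01% Brij-35, 1 mM EGTA, 2 mM DTT and 0.05 mM orthovanadate. Fluorescein-LRRKtide and 134 μM ATP (Km) were then added for 90 min. EDTA and Tb-anti-pERM antibody stopped the reaction; the TR-FRET 520/495 ratio gave 4-parameter IC50s, reported as mean pIC50.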

GST tagged truncated human mutant G2019S LRRK2, sequence (Q5S007 970-2527 G2019S): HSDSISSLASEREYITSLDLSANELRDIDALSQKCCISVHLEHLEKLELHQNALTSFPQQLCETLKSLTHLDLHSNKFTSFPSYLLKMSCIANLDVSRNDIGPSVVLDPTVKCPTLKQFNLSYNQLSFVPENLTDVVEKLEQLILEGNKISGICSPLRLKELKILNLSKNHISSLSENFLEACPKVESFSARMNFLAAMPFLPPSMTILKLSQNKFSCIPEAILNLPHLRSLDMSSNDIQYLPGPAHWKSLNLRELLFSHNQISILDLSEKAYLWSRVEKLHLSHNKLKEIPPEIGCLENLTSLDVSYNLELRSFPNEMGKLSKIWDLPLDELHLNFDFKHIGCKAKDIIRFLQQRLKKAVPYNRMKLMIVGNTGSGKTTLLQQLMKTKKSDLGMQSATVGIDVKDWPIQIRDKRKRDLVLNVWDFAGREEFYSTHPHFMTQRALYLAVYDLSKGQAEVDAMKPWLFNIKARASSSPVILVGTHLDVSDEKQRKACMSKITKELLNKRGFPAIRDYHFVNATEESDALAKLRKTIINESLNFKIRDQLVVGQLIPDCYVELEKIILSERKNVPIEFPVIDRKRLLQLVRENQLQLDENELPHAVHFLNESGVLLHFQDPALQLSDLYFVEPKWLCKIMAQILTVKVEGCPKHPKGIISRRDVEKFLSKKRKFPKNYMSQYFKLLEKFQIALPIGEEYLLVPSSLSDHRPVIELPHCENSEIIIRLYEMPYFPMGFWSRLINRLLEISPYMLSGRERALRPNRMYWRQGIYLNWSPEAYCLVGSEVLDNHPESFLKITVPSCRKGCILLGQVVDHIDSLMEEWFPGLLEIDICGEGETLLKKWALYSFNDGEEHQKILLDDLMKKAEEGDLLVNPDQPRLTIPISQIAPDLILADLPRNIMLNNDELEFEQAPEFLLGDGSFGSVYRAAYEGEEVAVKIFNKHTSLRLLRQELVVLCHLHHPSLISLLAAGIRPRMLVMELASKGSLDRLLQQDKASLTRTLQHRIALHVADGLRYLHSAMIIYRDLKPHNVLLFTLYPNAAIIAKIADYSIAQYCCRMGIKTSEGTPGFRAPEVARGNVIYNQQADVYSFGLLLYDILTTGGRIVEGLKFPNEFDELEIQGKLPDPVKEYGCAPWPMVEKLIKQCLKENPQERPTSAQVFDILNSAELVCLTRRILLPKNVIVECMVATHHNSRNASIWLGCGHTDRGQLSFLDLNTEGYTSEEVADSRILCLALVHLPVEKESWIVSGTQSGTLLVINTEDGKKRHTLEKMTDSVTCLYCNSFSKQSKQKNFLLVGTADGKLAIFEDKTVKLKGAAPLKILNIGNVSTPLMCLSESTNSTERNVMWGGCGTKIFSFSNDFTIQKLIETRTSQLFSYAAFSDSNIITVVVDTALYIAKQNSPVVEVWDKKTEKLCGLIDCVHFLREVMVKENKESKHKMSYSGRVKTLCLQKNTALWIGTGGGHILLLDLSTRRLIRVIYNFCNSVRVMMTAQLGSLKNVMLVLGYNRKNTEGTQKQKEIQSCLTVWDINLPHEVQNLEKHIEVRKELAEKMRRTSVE

Molecule | LRRK2 pIC50
CC1OCC1N1CCC(c2cc3nc(Nc4cnn(CC(C)(C)O)c4Cl)ncc3cc2Cl)CC1 (single isomer, unassigned) [Ex-4.75, (2R,3R) or (2S,3S) or (2S,3R) or (2R,3S) 1-[5-chloro-4-({6-chloro-7-[1-(2-methyloxetan-3-yl)piperidin-4-yl]quinazolin-2-yl}amino)-1H-pyrazol-1-yl]-2-methylpropan-2-ol] | 8.14
Cc1c(Nc2ncc3cc(Cl)c(C4CCN(C[C@]5(O)C[C@H](C#N)C5)CC4)cc3n2)cnn1C1CC1 [Ex-4.229, trans-3-[(4-{6-chloro-2-[(1-cyclopropyl-5-methyl-1H-pyrazol-4-yl)amino]quinazolin-7-yl}piperidin-1-yl)methyl]-3-hydroxycyclobutane-1-carbonitrile] | 8.95
Cn1ncc(Nc2ncc3cc(Cl)c([C@@H]4CCN([C@]5(C)COC[C@@H]5O)C[C@H]4F)cc3n2)c1Cl (single isomer, unassigned) [Ex-4.233, (3S,4S)(3S,4S) or (3S,4S)(3R,4R) or (3R,4R)(3S,4S) or (3R,4R)(3R,4R) 4-(4-{6-chloro-2-[(5-chloro-1-methyl-1H-pyrazol-4-yl)amino]quinazolin-7-yl}-3-fluoropiperidin-1-yl)-4-methyloxolan-3-ol] | >9.20
Cn1nc(C2CC2)cc1Nc1ncc2cc(Cl)c(C3CCN([C@@H]4COC[C@@H]4O)CC3)cc2n1 (single isomer, unassigned) [Ex-1.23, (3S,4S) or (3R,4R) 4-(4-{6-chloro-2-[(3-cyclopropyl-1-methyl-1H-pyrazol-5-yl)amino]quinazolin-7-yl}piperidin-1-yl)oxolan-3-ol] | 9.00
N#Cc1cc2cnc(Nc3cnn(C4CC4(F)F)c3Cl)nc2cc1[C@H]1CCN(C2COC2)C[C@@H]1F (single isomer, unassigned) [Ex-6.6, (R)(3S,4S) or (S)(3S,4S) or (R)(3R,4R) or (S)(3R,4R) 2-((5-chloro-1-(2,2-difluorocyclopropyl)-1H-pyrazol-4-yl)amino)-7-(3-fluoro-1-(oxetan-3-yl)piperidin-4-yl)quinazoline-6-carbonitrile] | 8.94
N#Cc1cc2cnc(Nc3cnn(C4CC4(F)F)c3Cl)nc2cc1[C@H]1CCN(C2COC2)C[C@@H]1F (single isomer, unassigned) [Ex-6.7, (R)(3S,4S) or (S)(3S,4S) or (R)(3R,4R) or (S)(3R,4R) 2-((5-chloro-1-(2,2-difluorocyclopropyl)-1H-pyrazol-4-yl)amino)-7-(3-fluoro-1-(oxetan-3-yl)piperidin-4-yl)quinazoline-6-carbonitrile] | 9.01
CN1CCC(c2cc3nc(Nc4cnn(CC(C)(C)O)c4Cl)ncc3cc2Cl)CC1 [Ex-4.72, 1-(5-chloro-4-{[6-chloro-7-(1-methylpiperidin-4-yl)quinazolin-2-yl]amino}-1H-pyrazol-1-yl)-2-methylpropan-2-ol] | 8.92
O[C@@H]1COC[C@@H]1N1CCC(c2cc3nc(Nc4cnn(C5CC5)c4Cl)ncc3cc2Cl)CC1 (single isomer, unassigned) [Ex-4.105, (3S,4S) or (3R,4R) 4-(4-(6-chloro-2-((5-chloro-1-cyclopropyl-1H-pyrazol-4-yl)amino)quinazolin-7-yl)piperidin-1-yl)tetrahydrofuran-3-ol] | 8.51
Clc1cc2cnc(Nc3cnn(C4CC4)c3Cl)nc2cc1C1CC2COCC(C1)N2C1COC1 (stereo not drawn) [Ex-4.113, cis or trans 6-chloro-N-(5-chloro-1-cyclopropyl-1H-pyrazol-4-yl)-7-(9-(oxetan-3-yl)-3-oxa-9-azabicyclo[3.3.1]nonan-7-yl)quinazolin-2-amine] | 8.11
CC1CC(c2cc3nc(Nc4cnn(C5CC5)c4Cl)ncc3cc2Cl)CCN1C1COC1 (single isomer, unassigned) [Ex-4.106, (2S,4S) or (2R,4R) or (2S,4R) or (2R,4S) 6-chloro-N-(5-chloro-1-cyclopropyl-1H-pyrazol-4-yl)-7-(2-methyl-1-(oxetan-3-yl)piperidin-4-yl)quinazolin-2-amine] | >9.20
Cc1cc(Nc2ncc3cc(Cl)c(C4CCN([C@H]5COC[C@H]5O)CC4)cc3n2)n(C)n1 (single isomer, unassigned) [Ex-2.68, (3S,4S) or (3R,4R) 4-(4-{6-chloro-2-[(1,3-dimethyl-1H-pyrazol-5-yl)amino]quinazolin-7-yl}piperidin-1-yl)oxolan-3-ol] | >9.20
Cn1ncc(Nc2ncc3cc(Cl)c(C4CCN([C@]5(C)COC[C@@H]5O)CC4)cc3n2)c1C(F)(F)F (single isomer, unassigned) [Ex-2.90, (3S,4S) or (3R,4R) 4-(4-(6-chloro-2-((1-methyl-5-(trifluoromethyl)-1H-pyrazol-4-yl)amino)quinazolin-7-yl)piperidin-1-yl)-4-methyltetrahydrofuran-3-olyl)piperidin-1-yl]-4-methyloxolan-3-ol] | >9.20
Cn1ncc(Nc2ncc3cc(Cl)c([C@@H]4CCN([C@@H]5COC[C@@H]5O)C[C@H]4F)cc3n2)c1Cl (single isomer, unassigned) [Ex-4.186, (3S,4S)(3S,4S) or (3S,4S)(3R,4R) or (3R,4R)(3S,4S) or (3R,4R)(3R,4R) 4-(4-{6-chloro-2-[(5-chloro-1-methyl-1H-pyrazol-4-yl)amino]quinazolin-7-yl}-3-fluoropiperidin-1-yl)oxolan-3-ol] | 7.95
N#Cc1cc2cnc(Nc3cnn(C4CC4)c3Cl)nc2cc1C1CCN(C2COC2)CC1 [Ex-6.3, 2-((5-chloro-1-cyclopropyl-1H-pyrazol-4-yl)amino)-7-(1-(oxetan-3-yl)piperidin-4-yl)quinazoline-6-carbonitrile] | 9.07
Clc1cc2cnc(Nc3cnn(C4CCC4)c3Cl)nc2cc1C1CCN(C2COC2)CC1 [Ex-4.15, 6-chloro-N-(5-chloro-1-cyclobutyl-1H-pyrazol-4-yl)-7-[1-(oxetan-3-yl)piperidin-4-yl]quinazolin-2-amine] | >9.20
N#CC1CCC(N2CC[C@@H](c3cc4nc(Nc5cnn(C6CC6)c5Cl)ncc4cc3Cl)[C@H](F)C2)C1 (single isomer, unassigned) [Ex-4.110, (1R,3S)-3-((3S,4S) or (1S,3R)-3-((3S,4S) or (1R,3R)-3-((3S,4S) or (1S,3S)-3-((3S,4S) or (1R,3S)-3-((3R,4R) or (1S,3R)-3-((3R,4R) or (1R,3R)-3-((3R,4R) or 1S,3S)-3-((3R,4R) 4-(6-chloro-2-((5-chloro-1-cyclopropyl-1H-pyrazol-4-yl)amino)quinazolin-7-yl)-3-fluoropiperidin-1-yl)cyclopentane-1-carbonitrile] | 8.73
(3S,4S) or (3R,4R) 6-chloro-N-(5-chloro-1-cyclopropyl-1H-pyrazol-4-yl)-7-(3-fluoropiperidin-4-yl)quinazolin-2-amine [Ex-4.1] | 9.08
Cc1c(Nc2ncc3cc(Cl)c(C4CCN([C@]5(C)COC[C@@H]5O)CC4)cc3n2)cnn1C1CC1 (single isomer, unassigned) [Ex-1.16, (3S,4S) or (3R,4R) 4-(4-(6-chloro-2-((1-cyclopropyl-5-methyl-1H-pyrazol-4-yl)amino)quinazolin-7-yl)piperidin-1-yl)-4-methyltetrahydrofuran-3-ol] | >9.20
Cc1c(Nc2ncc3cc(Cl)c(C4CCN([C@@H]5COC[C@@H]5O)CC4)cc3n2)cnn1C12CC(C1)C2 (single isomer, unassigned) [Ex-2.28, (3S,4S) or (3R,4R) 4-[4-(2-{[1-(bicyclo[1.1.1]pentan-1-yl)-5-methyl-1H-pyrazol-4-yl]amino}-6-chloroquinazolin-7-yl)piperidin-1-yl]oxolan-3-ol] | >9.20
Cc1c(Nc2ncc3cc(Cl)c([C@@H]4CCN(C5COC[C@H]5O)C[C@H]4F)cc3n2)cnn1C1CC1 (single isomer, unassigned) [Ex-4.128, (3S,4S)(3S,4S) or (3S,4S)(3R,4R) or (3R,4R)(3S,4S) or (3R,4R)(3R,4R) 4-[4-{6-chloro-2-[(1-cyclopropyl-5-methyl-1H-pyrazol-4-yl)amino]quinazolin-7-yl}-3-fluoropiperidin-1-yl]oxolan-3-ol] | 8.99
Cc1c(Nc2ncc3cc(Cl)c(C4CCN(C[C@H](O)c5ccc(F)c(F)c5)CC4)cc3n2)cnn1C1CC1 [Ex-4.199, (1R)-2-(4-{6-chloro-2-[(1-cyclopropyl-5-methyl-1H-pyrazol-4-yl)amino]quinazolin-7-yl}piperidin-1-yl)-1-(3,4-difluorophenyl)ethan-1-ol] | 7.96
O=S1(=O)CC(N2CCC(c3cc4nc(Nc5cnn(C6CC6)c5Cl)ncc4cc3Cl)CC2)C1 [Ex-8.7, 3-(4-(6-chloro-2-((5-chloro-1-cyclopropyl-1H-pyrazol-4-yl)amino)quinazolin-7-yl)piperidin-1-yl)thietane 1,1-dioxide] | >9.20
FC1(c2cc3nc(Nc4cnn(C5CC5)c4Cl)ncc3cc2Cl)CCN(C2COC2)CC1 [Ex-4.31, 6-chloro-N-(5-chloro-1-cyclopropyl-1H-pyrazol-4-yl)-7-[4-fluoro-1-(oxetan-3-yl)piperidin-4-yl]quinazolin-2-amine] | 8.23

same assay, conditions: G2019S LRRK2, 134 μM ATP (Km ATP), mean values; read-out: LRRK2 pIC50 (converted)

Molecule | IC50
C[C@@H]1CC(c2cc3nc(Nc4cnn(C5CC5)c4Cl)ncc3cc2Cl)CCN1C1COC1 (single isomer, unassigned) [Ex-1.11, (S) or (R) 6-chloro-N-(5-chloro-1-cyclopropyl-1H-pyrazol-4-yl)-7-(2-methyl-1-(oxetan-3-yl)piperidin-4-yl)quinazolin-2-amine] | < 631 pM
Cc1c(Nc2ncc3cc(Cl)c(C4CCN(C5COC5)CC4)cc3n2)cnn1C1CC1(F)F (single isomer, unassigned) [Ex-2.73, (S) or (R) 6-chloro-N-[1-(2,2-difluorocyclopropyl)-5-methyl-1H-pyrazol-4-yl]-7-[1-(oxetan-3-yl)piperidin-4-yl]quinazolin-2-amine] | 955 pM

From US12540131B2 (Merck Sharp & Dohme LLC, priority 2019, dated 2026)
